Measured values published in patent US6120997A, “Nucleic acid binders having an hydroxyamine motif” (The Scripps Research Institute, priority 1998, dated 2000).
Entries after “also recorded” stand apart in the source; their conditions may differ.

How the values were obtained:
Rev-RRE = settings: cited from earlier work
AS-wt = test: SPR binding of aminoglycosides to decoding region A-site model AS-wt; parameters: species or system E. coli; settings: for RNA binding, affinity or specificity for AS-wt (in words): Example 4; for specificity for AS-wt over negative controls (in words): Example 5, HBS-buffer
Outline: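 Compounds were injected over biotinylated RNA immobilized on streptavidin SPR chips in HBS (150 mM NaCl, 10 mM HEPES pH 7.4, 3.4 mM EDTA) […]. KD was obtained by non-linear fitting of equilibrium binding isotherms; the KD(AS-U1495A)/KD(AS-wt) ratio defines specificity.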

AS-U1495A = test: SPR binding of aminoglycosides to AS-U1495A; settings: HBS-buffer
Description: The RNA binding properties of 100-800 were analyzed using a surface plasmon resonance based assay that was recently developed in these laboratories. This assay allows the determination of both affinity and specificity of small molecule-RNA interactions. For the analysis, the compounds were injected over a matrix containing RNA that was immobilized through a biotin tag and the equilibrium binding values were recorded at various concentrations.
Non-linear curve fitting was then used to determine the values of the dissociation constants (KD). The specificity of binding, i.e. the ability to discriminate between different RNA sequences was evaluated by comparing the binding to the target sequence (AS-wt) and the negative control (AS-U1495A). […]
For the quantitative measurement of aminoglycoside binding to these sequences, we utilized our recently developed SPR-based assay. […]
In the same manner as illustrated for paromomycin, a panel of aminoglycosides was screened and the results are compiled in the table of FIGS. 46 and 47. […] All data were recorded under near physiological salt conditions (HBS-buffer: 150 mM NaCl, 10 mM HEPES, pH7.4, 3.4 mM EDTA) unless noted otherwise. […]
Plasmon resonance and antimicrobial testing for Example 4. Synthesis of the biotinylated RNA and surface plasmon resonance detected binding experiments were performed as described vida supra. […]

[1] = test system: Escherichia coli (ATCC 25922); test: minimum inhibitory concentration, broth dilution technique; assay type: cell-based; settings: E. coli, liquid culture
Text: We reasoned that this modification would provide the cleanest test for probing the ionic contribution, since hydrogen bond donor abilities, electronegativity and steric demand are similar for both functional groups. In order to learn how well the model system correlates with in vivo activity, we checked the new compounds for antibacterial activity against three bacterial strains using the disc method (Kirby-Bauer technique). The minimum inhibitory concentrations (MICs) of the compounds were then determined using the broth dilution technique. For antibiotic testing protocols, see: (a) Disk testing protocols: Phillips, I.; Williams, D., in Laboratory Methods in Antimicrobial Chemotherapy, Garrod, L. (ed.) Churchill Livingstone Press: Edinburgh, 1978, pp. 3-30. (b) MIC determination: Waterworth, P. M., in Laboratory Methods in Antimicrobial Chemotherapy, Garrod, L. (ed.) Churchill Livingstone Press: Edinburgh, 1978, pp. 31-40; Barry, A. L. The Antimicrobic Susceptibility Test: Principles and Practice, Lea and Febiger: Philadelphia (1976). (c) Standards: Lorian, V., Antibiotics in Laboratory Medicine (2nd. ed.), Williams and Wilkins: Baltimore, 1986.
FIG. 39A gives the zone diameters measured for the three bacterial strains. The zone diameters measured for the strains with known antibiotics are well within the accepted limits. […] It is worth noting that some testing protocols recommend overnight growth of the cultures, rather than the minimum time required to obtain good growth of the control. MIC values were tested for several of the control antibiotics using overnight growth, and the MIC values observed were 2-4× greater than those observed for 4-6 hour growth.
Minimal Inhibitory Concentration (MIC) testing. E. coli ATCC 25922 was grown in Mueller-Hinton broth (cation-adjusted, BBL Microbiology Systems) to an optical density of approx. 0.5 (absorbance read at 600 nm), then diluted to an OD600 of 0.1. Samples of antibiotic were prepared in Mueller-Hinton broth, typically a series of 2-fold dilutions from […]. […] The absorbance of each sample was read (1=600 nm), and MIC was considered to be the lowest antibiotic concentration at which the absorbance was less than 1% of the no-antibiotic control.

[2] = cited from earlier work
[3] = test system: bacterial protein synthesis; settings: cited from earlier work

Row | Structure (SMILES) | reported inhibitory effect on Rev-RRE binding (in words) (Rev-RRE) | reported inhibition difference between neomycin B and paromomycin, Rev-RRE (Rev-RRE; gel-shift assays) [fold] | RNA binding, affinity or specificity for AS-wt (in words) (AS-wt) | specificity for AS-wt over negative controls (in words) (AS-wt) | temperature dependence of binding to AS-wt (in words) (AS-wt; Neo16bd, AS-wt and RBE3) | weaker binding to AS-U1495A than to AS-wt (AS-U1495A) [fold] | antibacterial activity / MIC compared with neomycin B (in words) [1] | pKa of N3 [2] | effect on bacterial protein synthesis (in words) [3]
1 | NC[C@@H]1O[C@H](O[C@H]2[C@@H](O)[C@H](O[C@@H]3[C@@H](O)[C@H](N)C[C@H](N)[C@H]3O[C@H]3O[C@H](CO)[C@@H](O)[C@H](O)[C@H]3N)O[C@@H]2CO)[C@H](N)[C@@H](O)[C@@H]1O [Paromomycin] | virtually no inhibitory effect | > 100 | somewhat higher affinity but lower specificity | specific for AS-wt over the negative control RNAs | tighter at lower temperature | 20 | – | – | –
2 | NC[C@@H]1O[C@H](O[C@H]2[C@@H](O)[C@H](O[C@@H]3[C@@H](O)[C@H](N)C[C@H](N)[C@H]3O[C@H]3O[C@H](CN)[C@@H](O)[C@H](O)[C@H]3N)O[C@@H]2CO)[C@H](N)[C@@H](O)[C@@H]1O [Neomycin B] | – | – | tightest binder; also recorded: further improvement of the overall affinity, without affecting specificity | specific for AS-wt over the negative control RNAs | – | – | within accepted ranges for sensitive E. coli strains | < 6 | induces miscoding during translation
